According to patent US8618154B2, “LXR modulators” (Bristol-Myers Squibb Company, priority 2009, dated 2013):

Tested on: ABCG1 mRNA in blood cells
Assay: In vivo potency and maximum ABCG1 induction in cynomolgus monkey
Settings: po; for EC50: Macaca fascicularis, 5 h
Experimental: Compounds of the present invention were tested for their ability to induce the mRNA for the LXR target gene ABCG1 in blood cells when administered orally to cynomolgus monkeys.
Test compounds were formulated in 0.5% carboxymethyl cellulose (CMC, Sigma) and 2% Tween 80 (Sigma) by trituration. Each treatment group contained three male monkeys, each weighing 3.0-6.0 kg at the start of the study. Test compounds were formulated fresh each morning in vehicle, and animals that had been fasted the previous night were dosed between 7 and 7:30 AM by po gavage. For baseline blood cell mRNA determinations, 1 ml of venous blood was collected in an EDTA dry-coated tube and 1 volume of Dulbecco's Phosphate Buffered Saline without calcium or magnesium and 2 volumes of Nucleic Acid Purification Lysis Solution (Applied Biosystems, Inc.) were added. Samples were frozen at −80° C. prior to RNA isolation and analysis. Test compounds were dosed following the baseline sample collection. At 5 hr post-dose, venous blood was collected and processed as above for RNA determinations. An additional 0.5 ml of blood was also collected and analyzed for compound plasma concentrations.
Frozen samples were allowed to thaw at room temperature, and then placed on ice. Total RNA was isolated on the ABI 6100 using a pre-loaded protocol according to the manufacturer's instructions (ABI Manual #4332809 Rev. B).
qScript cDNA Synthesis Kit from Quanta Biosciences, Inc. was used to generate first-strand cDNA from each total RNA sample. 20 μl Reactions were carried out in 96-well Eppendorf AG twin-tec PCR plates on a MJ Research, Inc. model PTC-200 DNA Engine. Approximately 500 ng of total RNA was used for each reaction. Reactions were composed as follows: 4 μl 5× q-Script Reaction Mix plus 3-5 μl nuclease-free water plus 1 μl q-Script Reverse Transcriptase plus 10-12 μl input RNA. After mixing, reactions were centrifuged at 3750 rpm for 2 minutes at room temperature and run on a “q-Script” protocol (25° C. for 5 minutes, followed by 42° C. for 30 minutes, and then 85° C. for 5 minutes) in a MJ Research thermocycler. Each reaction was diluted with 30 μl of nuclease-free water and used immediately for SYBR-green Q-PCR or stored at −20° C. SYBR-Green Q-PCR reactions were performed as follows. Reaction mixtures for the LXR target gene, ABCG1, and the internal standard normalization gene ribosomal protein L30 were prepared using validated forward/reverse primer sets [ABCG1 (X-Mmul-ABCG1-F1 and X-Mmul-ABCG1-R1); ribosomal protein L30 (SYBR-hL30-F1 and SYBR-hL30-R1)]. […]
The relative amount of ABCG1 mRNA was calculated using the second derivative comparative Ct method (2^−ΔΔCt). Quantification was obtained after normalization to ribosomal protein L30 mRNA. […]

Row | EC50 [nM] | Compound | Maximum ABCG1 Induction (fold vs. baseline ± S.E.) (blood cells, 5 hrs post-dose) [fold vs. baseline]
1 | 630 ± 168 | CC(C)(O)c1cn(-c2ccc(-c3cccc(S(C)(=O)=O)c3)cc2)c(C(C)(C)c2ccccc2Cl)n1 [Compound No. 19, Table 1, WO 2007/002563, reference compound] | 12.4 ± 1.8
2 | 141 ± 53 | CC(C)(O)c1cn(-c2ccc(-c3cc(F)c(CO)c(S(C)(=O)=O)c3)cc2)c(C(C)(C)c2cccc(F)c2Cl)n1 [Example 4, 2-(2-(2-(2-chloro-3-fluorophenyl)propan-2-yl)-1-(3′-fluoro-4′-(hydroxymethyl)-5′-(methylsulfonyl)biphenyl-4-yl)-1H-imidazol-4-yl)propan-2-ol] | –
3 | 11 ± 6 | CC(C)(O)c1cn(-c2ccc(-c3cc(F)c(CO)c(S(C)(=O)=O)c3)cc2F)c(C(C)(C)c2c(Cl)cccc2Cl)n1 [Example 9, 2-(2-(2-(2,6-dichlorophenyl)propan-2-yl)-1-(3,3′-difluoro-4′-(hydroxymethyl)-5′-(methylsulfonyl)biphenyl-4-yl)-1H-imidazol-4-yl)propan-2-ol] | –
